Experimental data reported in EP0150787A2, “Compound having antibronchopneumopathic activity, process for its preparation and pharmaceutical compositions containing it” (PULITZER ITALIANA S.p.A., priority 1984, dated 1985).
Where two headings read alike, the source gives them in different places.

Legend:
[1] = Acute toxicity, oral route, method of Litchfield and Wilcoxon; settings: in vivo, os
Text: The acute toxicity of PU 163 has been determined in the mouse and in the rat by the oral route accor ding to the method of Litchfield and Wilcoxon (J. Pharm. Exp. Therap. 1949, 96, 99).

[2] = system: trachea ciliate cells; assay: Ciliary motility in the dog's trachea in vitro (transit speed of a charcoal bolus); type: cell-based; settings: for SPEED OF CHARCOAL PARTICLES 5 Minutes mm/min. x̄ ± ES / SPEED OF CHARCOAL PARTICLES 10 Minutes mm/min x̄ ± ES / SPEED OF CHARCOAL PARTICLES 20 Minutes mm/min. x̄ ± ES / activation at 100 µg/mL: 10^-4 g/ml; for activation at 100 µg/mL: Canis lupus familiaris; for SPEED OF CHARCOAL PARTICLES Basal mm/min. x̄ ± ES: group later treated with 10^-4 g/ml
Text: The mucolytic activity of many products is due in that they induce an increase of motility in the trachea ciliate cells.
The method hereinafter described allows to assess "in vitro" if a compound increases, or not, the motility of said cells. The method is based on the measurement of the transit speed of a charcoal bolus in a section of trachea.
The method used is that described by J.E. Lightowler and N.H. Lightowler (Arch. Int. Pharmacodyn. 189, 53-58, 1971) and uses an apparatus similar to that described by T. Dalhamn (Acta Physiol. Scand. Suppl. 123, 1956).

[3] = system: rat; assay: Bronchosecretogogue activity (Mawatari test, bronchial elimination of sodium fluorescein); type: in vivo; settings: 50 mg/kg i.p. (table head; text: oral route), percent increase of bronchial elimination
Text: The bronchosecretogogue activity of PU 163 and, as a comparison, of Ambroxol has been determined in the rat using the method described by Mawatari ("Experimental Studies on the Expectorant Action of Several Drugs", Kagoshima Daigaku Igaku Zasshi, 27, 561, 1976). […] After the animals'sacrifice, the evaluation of the amound of sodium fluorescein present at the bronchial level has been carried out. The results obtained, reported in the Table 3, are expressed as percent increase of the bronchial elimination of sodium fluorescein of the groups treated with Ambroxol and PU 163 in comparison with a control group.

[4] = system: alveolar surfactant; assay: Activity on the alveolar surfactant (static volume-pulmonary pressure curves); type: in vivo; settings: rat, 50 mg/kg p.o.
Description: This test allow to verify if a compound can modi fy the surfaces of lung alveoli, as there are pathological conditions in which a superficial firm is produced in the alveoli which, as time goes on, can produce foam in the bronchi, making the respiration difficult. In order to assess this kind of activity, the method described by Curty P.C. (Arzneim. Forsch. Drug. Res., 24, 847, 1974) is used. According to said method the volume and the pressure after insufflation in the rat's lung, are measured. […] After sacrifice, and after the trachea incan nulation, the respiratory apparatus has been extracted from the thoracic cavity and the static cur ves of volume-pulmonary pressure.

[5] = system: chronic bronchitis induced by inhalation of SO in the rat; assay: Chronic bronchitis induced by SO2 inhalation; type: in vivo; settings: 50 mg/kg by gastric tube
Text: The action of PU 163 in comparison with Ambroxol on the chronic bronchitis induced by inhalation of SO in the rat has been evaluated according to the method described by Quevauvillier e coll. (Therapie, XXII; 185-193; 1967). […] The efficacy of […] been evaluated in function of the regression degree of the pulmonary lesions induced by […] inhalation.

[6] = system: elastase; assay: Elastase inhibition (method of R.M. Senior); type: biochemical
Text: The inhibiting activity of PU 163 and of Ambroxol on elastase has been measured according to the method described by R.M. Senior (Plenum Press. New York; 249-254; 1977).

[7] = system: pulmonary emphysema induced in the guinea pig; assay: Pulmonary emphysema induced by intratracheal porcine pancreatic elastase; type: in vivo; settings: 50 mg/kg i.p. 1 hour after the elastase injection
Description: The ability of PU 163 of antagonizing the pulmonary emphysema induced in the guinea pig by intratracheal injection of 0.1 mg of porcine pancrea tic elastase has been evaluated in comparison with Ambroxol, according to the method described by Stone P.J. et al. (Am. Rev. Resp. Dis. 124/1, 56-59; 1981). Both compounds have been administered by the i.p. route at the equiponderant dose of 50 mg/kg 1 hour after the elastase injection.

[8] = Pharmacokinetics and organ distribution by HPLC; type: in vivo; settings: rat, oral route, equimolar dose corresponding to 50 mg/kg of Ambroxol base
Description: The pharmacokynetics behaviour and the distribu tion in the organs of PU 163, in comparison to Ambroxol, has been determined in the rat after ad ministration by the oral route of equimolar doses, corresponding to 50 mg/kg of Ambroxol base.

[9] = 5 min, 5 minutes, read-out: SPEED OF CHARCOAL PARTICLES 5 Minutes % Δ vs.Bas. x̄ ± ES
[10] = 10 min, 10 minutes, * p <0.05, read-out: SPEED OF CHARCOAL PARTICLES 10 Minutes % Δ vs.Bas. x̄ ± ES
[11] = 20 min, 20 minutes, ** p <0.01, read-out: SPEED OF CHARCOAL PARTICLES 20 Minutes % Δ vs.Bas. x̄ ± ES

SMILES	LD50 ([1]; mouse) [mg/kg]	LD50 ([1]; rat) [mg/kg]	SPEED OF CHARCOAL PARTICLES 5 Minutes mm/min. x̄ ± ES ([2]; 5 minutes) [mm/min.]	SPEED OF CHARCOAL PARTICLES 10 Minutes mm/min x̄ ± ES ([2]; 10 minutes) [mm/min]	SPEED OF CHARCOAL PARTICLES 20 Minutes mm/min. x̄ ± ES ([2]; 20 minutes) [mm/min.]	activation at 100 µg/mL [2, 9] [%]	activation at 100 µg/mL [2, 10] [%]	activation at 100 µg/mL [2, 11] [%]	SPEED OF CHARCOAL PARTICLES Basal mm/min. x̄ ± ES [2] [mm/min.]	SODIUM FLUORESCEIN % vs. control [3] [%]	Internal pulmonary pressure (cm. H2O) ([4]; de-insufflation, 0.5 cm^3)	Internal pulmonary pressure (cm. H2O) ([4]; de-insufflation, 1 cm^3)	Internal pulmonary pressure (cm. H2O) ([4]; de-insufflation, 1.5 cm^3)	Internal pulmonary pressure (cm. H2O) ([4]; de-insufflation, 2 cm^3)	Internal pulmonary pressure (cm. H2O) ([4]; de-insufflation, 2.5 cm^3)	Internal pulmonary pressure (cm. H2O) ([4]; de-insufflation, 3 cm^3)	Internal pulmonary pressure (cm. H2O) ([4]; insufflation, 0.5 cm^3)	Internal pulmonary pressure (cm. H2O) ([4]; insufflation, 1 cm^3)	Internal pulmonary pressure (cm. H2O) ([4]; insufflation, 1.5 cm^3)	Internal pulmonary pressure (cm. H2O) ([4]; insufflation, 2 cm^3)	further results
Nc1c(Br)cc(Br)cc1CN[C@H]1CC[C@H](O)CC1 [Ambroxol, 4-/ /(2-amino-3,5-dibromophenyl)-methyl/amino/cyclohexanol, reference compound]	> 2500	> 5000	8.2 ±2.12	9.5 ±1.62	10.2 ±2.31	28.1 ± 3.54	57.6	59.4	6.4 ±1.30	32.1	0.25	1.1	2.3	3.3	4.6	6.1	2.45	4.1	5.6	6.9	Internal pulmonary pressure (cm. H2O) ([4]; insufflation, 2.5 cm^3): 7.9 cm. H2O; Internal pulmonary pressure (cm. H2O) ([4]; insufflation, 3 cm^3): 8.7 cm. H2O; Internal pulmonary pressure (cm. H2O) ([4]; insufflation, 3.5 cm^3): 9.3 cm. H2O; percent regression (lesions degrees) [5]: 38%; inhibiting activity on elastase [6]: practically inactive
O=C(Nc1c(Br)cc(Br)cc1CN[C@H]1CC[C@H](O)CC1)c1cccs1 [PU 163, 4-/ /(2-(2-thenoyl)-amino-3,5-dibromophenyl)-methyl/amino/cy-clohexanol]	> 2500	> 5000	8.7 ±2.82	10.2 ±2.02	11.5 ±2.38	24.3 ± 7.8	45.7	64.3	7.00 ±1.40	39.3	0.35	1.4	2.5	3.9	5.2	6.75	2.2	3.8	5.35	6.5	Internal pulmonary pressure (cm. H2O) ([4]; insufflation, 2.5 cm^3): 7.6 cm. H2O; Internal pulmonary pressure (cm. H2O) ([4]; insufflation, 3 cm^3): 8.45 cm. H2O; Internal pulmonary pressure (cm. H2O) ([4]; insufflation, 3.5 cm^3): 9 cm. H2O; activity of reducing emphysema [7]: high activity of reducing emphysema; percent regression (lesions degrees) [5]: 62%; concentrations in the organs (pulmonary level) [8]: larger amounts of Ambroxol at the pulmonary level; plasma concentrations as Ambroxol ([8]; compared with Ambroxol treated group): detected at prolonged times
